Laboratory results as given in patent US20080171780A1, “Process for Crystallization of Ramipril and Preparation of a Hydrated Form Thereof” (LUPIN LIMITED, priority 2004, published 2008).

How the values were obtained:
Assay type in all cases: physicochemical
[1] = In vitro drug release (dissolution) profile, USP apparatus 1, 0.1 N HCl; details: 50 RPM, solid composition with pregelatinized starch
Protocol: Optically pure Ramipril(I) obtained from example 1 is formulated as a solid pharmaceutical composition by conventional way of direct mixing process with excipients such as pregelatinized starch.
Ramipril(I) monohydrate obtained from example 5 is formulated as a solid pharmaceutical composition by conventional way of direct mixing process with excipients such as pregelatinized starch.
The in vitro drug release profile was carried out using USP apparatus 1,500 ml of 0.1 N HCl at 50 RPM. Following table provides a comparison of dissolution profile of Ramipril(I) crystallized from diethoxymethane as well as the Ramipril(I) monohydrate and prior art method.

[2] = Thermal stability of the hydrate form; details: converts to anhydrous form on heating above 40° C.
Protocol: The novel hydrate of Ramipril(I) occurs in crystalline form. It is readily converted to the anhydrous moiety by heating at a temperature in the range from 40° C. to 42° C. under reduced pressure of 2 to 5 mm hg. The novel hydrate form is stable up to a temperature of 25° C. The monohydrate is transformed into anhydrous Ramipril(I), the so-called “anhydrate” on heating above 40° C. with a speed depending on the conditions of dehydration.

[3] = Bulk density (B.D.) of crystalline material
Source text: The bulk density is an economically, commercially, and functionally important property. […] Moreover, when shipping powders over long distances a high bulk density results in reducing the shipping volume. A high bulk density compound also saves packing material and storage capacity.

[4] = Tapped density (T.D.) of crystalline material
[5] = Stability study at 40° C./75% RH, assay by HPLC; details: crystallized by Diethoxymethane
[6] = Present invention, solvent 2,2-Dimethoxy-propane
[7] = Present invention, solvent Diethoxymethane
[8] = Present invention, solvent Methyl formate
[9] = Present invention, solvent Nitromethane
[10] = Prior art method, solvent Ethanol-diethyl ether
[11] = Prior art method, solvent Ethanol-diisopropyl ether

In the case of `CCOC(=O)[C@H](CCc1ccccc1)N[C@@H](C)C(=O)N1[C@H](C(=O)O)C[C@@H]2CCC[C@@H]21` [Crystallised from Diethoxymethane, (2S,3aS,6aS)-1-[(S)-2-[[(S)-1-(ethoxycarbonyl)-3-phenylpropyl]-amino]propanoyl]octahydrocyclopenta[b]pyrrole-2-carboxylic acid], the “% Drug release of the Label claim” value ([1]; 5 Min.) is reported as 48.4% and the “% Drug release of the Label claim” value ([1]; 10 Min.) is reported as 93.8%.

With `CCOC(=O)[C@H](CCc1ccccc1)N[C@@H](C)C(=O)N1[C@H](C(=O)O)C[C@@H]2CCC[C@@H]21.O` [Monohydrate Ramipril(I)] the “% Drug release of the Label claim” value ([1]; 5 Min.) was 40.8%, the “% Drug release of the Label claim” value ([1]; 10 Min.) was 87% and the “temperature up to which the form is stable” value [2] was ≤ 25 °C.

With `CCOC(=O)[C@H](CCc1ccccc1)N[C@@H](C)C(=O)N1[C@H](C(=O)O)C[C@@H]2CCC[C@@H]21` [Prior art Method] the “% Drug release of the Label claim” value ([1]; 5 Min.) was 18.8% and the “% Drug release of the Label claim” value ([1]; 10 Min.) was 75%.

With `CCOC(=O)[C@H](CCc1ccccc1)N[C@@H](C)C(=O)N1[C@H](C(=O)O)C[C@@H]2CCC[C@@H]21` [Ramipril(I), (2S,3aS,6aS)-1-[(S)-2-[[(S)-1-(ethoxycarbonyl)-3-phenylpropyl]-amino]propanoyl]octahydrocyclopenta[b]pyrrole-2-carboxylic acid] the B.D. [3, 6] was 0.1 to 0.13 g/mL, the B.D. [3, 7] was 0.22 to 0.24 g/mL and the B.D. [3, 8] was 0.11 to 0.13 g/mL. For the same molecule, the B.D. [3, 9] was 0.12 to 0.14 g/mL, the B.D. [3, 10] was 0.09 to 0.12 g/mL and the B.D. [3, 11] was 0.08 to 0.1 g/mL. The T.D. [4, 6] was 0.14 to 0.18 g/mL, the T.D. [4, 7] was 0.32 to 0.37 g/mL and the T.D. [4, 8] was 0.15 to 0.17 g/mL. It also gave a T.D. [4, 9] of 0.15 to 0.17 g/mL, a T.D. [4, 10] of 0.15 to 0.17 g/mL and a T.D. [4, 11] of 0.13 to 0.15 g/mL. For the same molecule, the “Assay by HPLC(%)” value ([5]; 40° C. ± 2° C./75% ± 5% RH, 1 Month) was 99.5%, the “Assay by HPLC(%)” value ([5]; 40° C. ± 2° C./75% ± 5% RH, 2 Month) was 99.2% and the “Assay by HPLC(%)” value ([5]; 40° C. ± 2° C./75% ± 5% RH, 3 Month) was 99.12%. The “Assay by HPLC(%)” value ([5]; Initial) was 99.68%.

With `CCOC(=O)[C@H](CCc1ccccc1)N[C@@H](C)C(=O)N1[C@H](C(=O)O)C[C@@H]2CCC[C@@H]21` [anhydrous Ramipril(I)] the bulk density [3] was 0.3 to 0.35 g/mL.
